In patent US9708314B2, “Heterocyclic amide compound” (NISSAN CHEMICAL INDUSTRIES, LTD., priority 2013, dated 2017):

Legend:
Type in all cases: in vivo
[1] = test system: directly sowed Oryza sativa; test: Test Example 3: effect on crop by application to foliage (Wagner pot, water depth 0.1-0.5 cm); conditions: Nineteenth Table; application to foliage; application herbicide amount 320 g/ha
Outline: (§1)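 Rice-field weeds and directly sown rice were grown 14 days in flooded alluvial soil (water depth 0.1–0.5 cm) at 25–30 °C in a greenhouse. An emulsion formulation diluted to the stated g/ha rate was sprayed onto stems and leaves. Effects were scored on a 0–5 scale (herbicidal ratio bands) three weeks after treatment.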

Leptochloa chinensis = test: Test Example 3: herbicidal effect by application to foliage (Wagner pot, water depth 0.1-0.5 cm); conditions: Nineteenth Table; application to foliage; application herbicide amount 320 g/ha
Outline: as §1

Cyperus difformis = test: as above; conditions: Nineteenth Table; application to foliage; application herbicide amount 320 g/ha
Outline: as §1

[2] = test system: Echinochloa crus-galli var. crus-galli; test: as above; conditions: Nineteenth Table; application to foliage; application herbicide amount 320 g/ha
Outline: as §1

Lolium multiflorum Lam. = test: Test Example 4: herbicidal effect by application to foliage (diluvial soil, plastic box); conditions: 320 g/ha
Outline: (§2)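 Scores run from 0 (herbicidal ratio ≤5%) to 5 (≥90%, almost fully withered) and were assessed three weeks after foliar spraying. Seedlings had been raised for 14 days at 25-30° C in sterilized diluvial soil before treatment, with the emulsion diluted in water to the stated g/ha dose.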

Stellaria media = test: as above; conditions: 320 g/ha
Outline: as §2

Chenopodium album = test: as above; conditions: 320 g/ha
Outline: as §2

Alopecurus myosuroides = test: as above; conditions: 320 g/ha
Outline: as §2

Abutilon theophrasti = test: as above; conditions: 320 g/ha
Outline: as §2

Veronica persica = test: as above; conditions: 320 g/ha
Outline: as §2

Apera spica-venti. = test: as above; conditions: 320 g/ha
Outline: as §2

Galium spurium = test: as above; conditions: 320 g/ha
Outline: as §2

Avena fatua = test: as above; conditions: 320 g/ha
Outline: as §2

Amaranthus retroflexus = test: as above; conditions: 320 g/ha
Outline: as §2

Digitaria ciliaris = test: as above; conditions: 320 g/ha
Outline: as §2

Setaria viridis = test: as above; conditions: 320 g/ha
Outline: as §2

[3] = test system: Echinochloa crus-galli var. crus-galli; test: as above; conditions: 320 g/ha
Outline: as §2

Zea mays = test: Test Example 4: effect on crop by application to foliage (diluvial soil, plastic box); conditions: 320 g/ha
Outline: as §2

Glycine max = test: as above; conditions: 320 g/ha
Outline: as §2

[4] = test system: directly sowed Oryza sativa; test: as above; conditions: 320 g/ha
Outline: as §2

Brassica campestris L. = test: as above; conditions: 320 g/ha
Outline: as §2

[5] = test system: Beta vulgaris ssp. vulgaris; test: as above; conditions: 320 g/ha
Outline: as §2

Triticum aestivum = test: as above; conditions: 320 g/ha
Outline: as §2

CCn1ncnc1NC(=O)c1ccc(C(F)(F)F)n2c(C(C)C)nnc12 [4-002]
b (effect on crop grade) [1]: 0 (Herbicidal ratio of 5% or less (almost no effect))
D (herbicidal effect grade) (Leptochloa chinensis): 4 (Herbicidal ratio of 70% or more and less than 90%)
E (herbicidal effect grade) (Cyperus difformis): 0 (Herbicidal ratio of 5% or less (almost no effect))
H (herbicidal effect grade) [2]: 0 (Herbicidal ratio of 5% or less (almost no effect))
herbicidal effect, K (Lolium multiflorum Lam.) (Lolium multiflorum Lam.; application to foliage): 0 (Herbicidal ratio of 5% or less (almost no effect))
herbicidal effect, P (Stellaria media) (Stellaria media; application to foliage): 3 (Herbicidal ratio of 40% or more and less than 70%)
herbicidal effect, O (Chenopodium album) (Chenopodium album; application to foliage): 4 (Herbicidal ratio of 70% or more and less than 90%)
herbicidal effect, J (Alopecurus myosuroides) (Alopecurus myosuroides; application to foliage): 0 (Herbicidal ratio of 5% or less (almost no effect))
herbicidal effect, M (Abutilon theophrasti) (Abutilon theophrasti; application to foliage): 5 (Herbicidal ratio of 90% or more (almost completely withered))
herbicidal effect, R (Veronica persica) (Veronica persica; application to foliage): 1 (Herbicidal ratio of 5% or more and less than 20%)
herbicidal effect, L (Apera spica-venti.) (Apera spica-venti.; application to foliage): 0 (Herbicidal ratio of 5% or less (almost no effect))
herbicidal effect, Q (Galium spurium) (Galium spurium; application to foliage): 1 (Herbicidal ratio of 5% or more and less than 20%)
herbicidal effect, I (Avena fatua) (Avena fatua; application to foliage): 1 (Herbicidal ratio of 5% or more and less than 20%)
herbicidal effect, N (Amaranthus retroflexus) (Amaranthus retroflexus; application to foliage): 4 (Herbicidal ratio of 70% or more and less than 90%)
herbicidal effect, F (Digitaria ciliaris) (Digitaria ciliaris; application to foliage): 1 (Herbicidal ratio of 5% or more and less than 20%)
herbicidal effect, G (Setaria viridis) (Setaria viridis; application to foliage): 1 (Herbicidal ratio of 5% or more and less than 20%)
herbicidal effect, H (Echinochloa crus-galli var. crus-galli) ([3]; application to foliage): 2 (Herbicidal ratio of 20% or more and less than 40%)
effect on crop, b (Zea mays) (Zea mays; application to foliage): 0 (Herbicidal ratio of 5% or less (almost no effect))
effect on crop, c (Glycine max) (Glycine max; application to foliage): 0 (Herbicidal ratio of 5% or less (almost no effect))
effect on crop, d (directly sowed Oryza sativa) ([4]; application to foliage): 1 (Herbicidal ratio of 5% or more and less than 20%)
effect on crop, g (Brassica campestris L.) (Brassica campestris L.; application to foliage): 0 (Herbicidal ratio of 5% or less (almost no effect))
effect on crop, f (Beta vulgaris ssp. vulgaris) ([5]; application to foliage): 0 (Herbicidal ratio of 5% or less (almost no effect))
effect on crop, e (Triticum aestivum) (Triticum aestivum; application to foliage): 0 (Herbicidal ratio of 5% or less (almost no effect))

Cn1nnnc1NC(=O)c1ccc(C(F)(F)F)n2c(CS(=O)(=O)CC(F)(F)F)nnc12 [2-036]
b (effect on crop grade) [1]: 1 (Herbicidal ratio of 5% or more and less than 20%)
D (herbicidal effect grade) (Leptochloa chinensis): 5 (Herbicidal ratio of 90% or more (almost completely withered))
E (herbicidal effect grade) (Cyperus difformis): 4 (Herbicidal ratio of 70% or more and less than 90%)
H (herbicidal effect grade) [2]: 4 (Herbicidal ratio of 70% or more and less than 90%)
K (Lolium multiflorum Lam.) herbicidal effect grade (Lolium multiflorum Lam.; foliage application): 0 (Herbicidal ratio of 5% or less (almost no effect))
P (Stellaria media) herbicidal effect grade (Stellaria media; foliage application): 5 (Herbicidal ratio of 90% or more (almost completely withered))
O (Chenopodium album) herbicidal effect grade (Chenopodium album; foliage application): 5 (Herbicidal ratio of 90% or more (almost completely withered))
J (Alopecurus myosuroides) herbicidal effect grade (Alopecurus myosuroides; foliage application): 0 (Herbicidal ratio of 5% or less (almost no effect))
M (Abutilon theophrasti) herbicidal effect grade (Abutilon theophrasti; foliage application): 5 (Herbicidal ratio of 90% or more (almost completely withered))
R (Veronica persica) herbicidal effect grade (Veronica persica; foliage application): 4 (Herbicidal ratio of 70% or more and less than 90%)
L (Apera spica-venti.) herbicidal effect grade (Apera spica-venti.; foliage application): 3 (Herbicidal ratio of 40% or more and less than 70%)
Q (Galium spurium) herbicidal effect grade (Galium spurium; foliage application): 4 (Herbicidal ratio of 70% or more and less than 90%)
I (Avena fatua) herbicidal effect grade (Avena fatua; foliage application): 1 (Herbicidal ratio of 5% or more and less than 20%)
N (Amaranthus retroflexus) herbicidal effect grade (Amaranthus retroflexus; foliage application): 5 (Herbicidal ratio of 90% or more (almost completely withered))
F (Digitaria ciliaris) herbicidal effect grade (Digitaria ciliaris; foliage application): 5 (Herbicidal ratio of 90% or more (almost completely withered))
G (Setaria viridis) herbicidal effect grade (Setaria viridis; foliage application): 4 (Herbicidal ratio of 70% or more and less than 90%)
H (Echinochloa crus-galli var. crus-galli) herbicidal effect grade ([3]; foliage application): 5 (Herbicidal ratio of 90% or more (almost completely withered))
b (Zea mays) effect on crop grade (Zea mays; foliage application): 0 (Herbicidal ratio of 5% or less (almost no effect))
c (Glycine max) effect on crop grade (Glycine max; foliage application): 0 (Herbicidal ratio of 5% or less (almost no effect))
d (directly sowed Oryza sativa) effect on crop grade ([4]; foliage application): 2 (Herbicidal ratio of 20% or more and less than 40%)
g (Brassica campestris L.) effect on crop grade (Brassica campestris L.; foliage application): 3 (Herbicidal ratio of 40% or more and less than 70%)
f (Beta vulgaris ssp. vulgaris) effect on crop grade ([5]; foliage application): 5 (Herbicidal ratio of 90% or more (almost completely withered))
e (Triticum aestivum) effect on crop grade (Triticum aestivum; foliage application): 0 (Herbicidal ratio of 5% or less (almost no effect))
